The results in this text go back to patent publication US20140186329A1, “POLYPHENOL ANALOGS TO TREAT ISCHEMIA” (priority 2011, published 2014).

Experiment [1] deals with HT22 cells. The experiment is described as follows: In vitro ischemia assay (HT22 cell IAA assay, MTT). The experiment is classed as cell-based, mouse. The settings on record: for percent protection from IAA-induced cell death at 0.1 µM / Emax: HT-22; for percent protection from IAA-induced cell death at 0.1 µM: compound 100 nM; for Emax: HT22 Cell IAA assay, read-out: Max Protection; for increase of survival over the neuroprotective concentration range / neuroprotective concentration range: 20 μM IAA 2 hr, MTT at 24 hours. The procedure, abridged: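 Mouse HT22 hippocampal cells in DMEM/7.5% DFCS exposed 2 hr to 20 μM iodoacetic acid with or without derivative, then 20 hr in IAA-free medium still containing derivative. Viability by MTT (2.5 μg/ml, 4 hr, 37 °C), absorbance at 570 nm.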

Experiment [2] relates to HT22 cells. The experiment is described as follows: Maintenance of total GSH in the presence of glutamate. The experiment is classed as cell-based, mouse. The settings on record: derivative 1-10 μM, 5 mM glutamate, 24 hr. The procedure, abridged:
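HT22 cells treated 24 hr with each derivative at 1-10 μM plus 5 mM glutamate, then extracts analysed for total GSH by chemical assay. Fisetin (10 μM) served as positive control.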

[3] abbreviates: HT22 cells, 20 μM IAA, read-out: HT22 Cell IAA assay EC50.
The mark [4] stands for this setting: Mus musculus, HT-22, HT22 cells, 20 μM IAA for 2 hr, viability after 24 hr by MTT, read-out: EC50 in vitro ischemia.
Setting [5] is: Mus musculus, HT-22, HT22 cells, 20 μM IAA, read-out: HT22 Cell IAA assay EC50.

Like-named read-outs stand apart in the source and are kept apart here.

With `O=C(/C=C/c1ccc(O)c(O)c1)c1ccc2ccccc2c1O` [CMS-034, (E)-3-(3,4-dihydroxyphenyl)-1-(1-hydroxynaphthalen-2-yl)prop-2-en-1-one], the EC50 was 79 nM in the experiment with HT22 cells [1] (setting [3]), 80 nM in the experiment on HT22 cells [1] (setting [4]) and at most 100 nM in the experiment with HT22 cells [1] (setting [5]). Also, the percent protection from IAA-induced cell death at 0.1 µM in the experiment with HT22 cells [1] (Mus musculus, 20 μM IAA) was determined as 63%. Also, the Emax with HT22 cells [1] (Mus musculus) was 81%. Also, in the experiment with HT22 cells [2], the “GSH (ability to maintain GSH)” value is reported as “yes”.

As to `O=c1c(O)c(-c2ccc(O)c(O)c2)oc2ccccc12` [CMS-04P, reference compound], the EC50 in the experiment on HT22 cells [1] (setting [4]) and in the experiment on HT22 cells [1] (setting [5]) was 500 nM throughout. Moreover, the “fold improvement of neuroprotective activity/potency relative to Fisetin” value with HT22 cells [1] (in vitro ischemia, HT22/IAA) is on record as about 6 fold. Moreover, in the experiment on HT22 cells [2], the “GSH (ability to maintain GSH)” value is “yes”.

For the compound `O=c1cc(-c2ccccc2)oc2cc(O)c(O)c(O)c12` [Baicalein, 5,6,7-trihydroxyflavone, reference compound], the “HT22 Cell IAA assay (maximal % protection)” value in the experiment on HT22 cells [1] (20 μM IAA) was found to be 85%. In the experiment with HT22 cells [1] (HT22 cells), the “increase of survival over the neuroprotective concentration range” value is given as “greater than 80%” and the neuroprotective concentration range fell in the range of 2.5 to 10 µM. In the experiment with HT22 cells [1] (setting [5]), the EC50 stood at 1500 nM.

With `Oc1ccc(-c2cc(OC3CCCC3)c3ccccc3n2)cc1O` [CMS-121, 4-cyclopentyloxy-2-(3,4-dihydroxyphenyl) quinoline], the EC50 in the experiment with HT22 cells [1] (setting [4]) was determined as 7 nM. Besides, in the experiment with HT22 cells [1] (Mus musculus), the Emax came out at 86%. Also, in the experiment with HT22 cells [1] (in vitro ischemia, HT22/IAA), the “fold improvement of neuroprotective activity/potency relative to Fisetin” value is listed as over 400 fold. In the experiment with HT22 cells [2], the “GSH (ability to maintain GSH)” value is given as “yes”.

As to `O=C(/C=C/c1ccc(O)c(O)c1)O[C@@H]1C[C@](O)(C(=O)O)C[C@@H](O)[C@H]1O` [Chlorogenic Acid, 1,3,4,5-tetrahydroxy-cyclohexanecarboxylic acid 3-(3,4-dihydroxycinnamate)], the “HT22 Cell IAA assay (maximal % protection)” value with HT22 cells [1] (20 μM IAA) is on record as 45%. For the same compound, in the experiment on HT22 cells [1] (setting [5]), the EC50 amounted to 5000 nM.

Take `Cc1cc2oc(-c3ccc(N(C)C)cc3)c(O)c(=O)c2cc1C` [CMS-117, 2-(4-(dimethylamino)phenyl)-3-hydroxy-6,7-dimethyl-4H-chromen-4-one]: the EC50 with HT22 cells [1] (setting [4]) turned out to be 20 nM. Besides, in the experiment on HT22 cells [1] (Mus musculus), the Emax was 81%. Further, the “GSH (ability to maintain GSH)” value with HT22 cells [2] is recorded as “yes”.

Take `Cc1cc2oc(-c3ccc(N4CCCC4)cc3)c(O)c(=O)c2cc1C` [CMS-122, 3-hydroxy-6,7-dimethyl-2-(4-(pyrrolidin-1-yl)phenyl)-4H-chromen-4-one]: in the experiment with HT22 cells [1] (setting [4]), the EC50 was 90 nM. Besides, the “GSH (ability to maintain GSH)” value with HT22 cells [2] is reported as “yes”.

In the case of `COc1cc(-c2oc3cc(C)c(C)cc3c(=O)c2O)ccc1O` [CMS-069, 3-hydroxy-2-(4-hydroxy-3-methoxyphenyl)-6,7-dimethyl-4H-chromen-4-one], the values for the EC50 in the experiment with HT22 cells [1] (setting [3]), with HT22 cells [1] (setting [4]) and with HT22 cells [1] (setting [5]) were 36 nM, 40 nM and under 40 nM, respectively. In addition, the percent protection from IAA-induced cell death at 0.1 µM with HT22 cells [1] (Mus musculus, 20 μM IAA) was 67%. Also, the “GSH (ability to maintain GSH)” value with HT22 cells [2] is on record as “no”.

On to `O=c1c(O)c(-c2ccc(O)c(O)c2)oc2cc(O)ccc12` [Fisetin, 3,7,3′,4′-Tetrahydroxyflavone, reference compound], for which, in the experiment on HT22 cells [1] (20 μM IAA), the “HT22 Cell IAA assay (maximal % protection)” value stood at 90%. Moreover, in the experiment with HT22 cells [1] (HT22 cells), the “increase of survival over the neuroprotective concentration range” value is on record as “greater than 85%” and the neuroprotective concentration range lay in the range of 5 to 25 µM. Further, the EC50 in the experiment on HT22 cells [1] (setting [4]) is 3000 nM. Further, in the experiment on HT22 cells [1] (setting [5]), the EC50 was 3000 nM. Further, the “GSH (ability to maintain GSH)” value with HT22 cells [2] is listed as “yes”.

Take `COc1ccc(/C=C/C(=O)c2cc(C)c(C)cc2O)cc1OCc1ccccc1` [CMS-086, (E)-3-(3-(benzyloxy)-4-methoxyphenyl)-1-(2-hydroxy-4,5-dimethylphenyl)prop-2-en-1-one]: the “EC50 in vitro ischemia (μM)” value with HT22 cells [1] (HT22 cells, 20 μM IAA for 2 hr, viability after 24 hr by MTT) is on record as “no”. In addition, in the experiment with HT22 cells [2], the “GSH (ability to maintain GSH)” value is listed as “yes”.

As for `Cc1cc(O)c(C(=O)/C=C/c2ccc(O)c(O)c2)cc1C` [CMS-011, (E)-3-(3,4-dihydroxyphenyl)-1-(2-hydroxy-4,5-dimethylphenyl)prop-2-en-1-one], the EC50 with HT22 cells [1] (setting [3]) is 53 nM; with HT22 cells [1] (setting [4]), 50 nM; in the experiment on HT22 cells [1] (setting [5]), 50 nM. Moreover, the percent protection from IAA-induced cell death at 0.1 µM in the experiment on HT22 cells [1] (Mus musculus, 20 μM IAA) came out at 62%. For the same compound, in the experiment with HT22 cells [2], the “GSH (ability to maintain GSH)” value was “yes”.

In the case of `O=c1c(O)c(-c2ccc(O)c(O)c2)oc2c1ccc1ccccc12` [CMS-040, 2-(3,4-dihydroxyphenyl)-3-hydroxy-4H-benzo[h]chromen-4-one], the EC50 with HT22 cells [1] (setting [4]) is 90 nM. Further, in the experiment on HT22 cells [1] (Mus musculus, 20 μM IAA), the percent protection from IAA-induced cell death at 0.1 µM was found to be 67%. The “fold enhancement of neuroprotective activity relative to CMS-04P” value in the experiment with HT22 cells [1] (in vitro ischemia, HT22/IAA) was about 5.5 fold. In the experiment with HT22 cells [2], the “GSH (ability to maintain GSH)” value was “no”.

On to `COc1cc(-c2oc3cc(C)c(C)cc3c(=O)c2O)ccc1OCc1ccccc1` [CMS-059, 2-(4-(benzyloxy)-3-methoxyphenyl)-3-hydroxy-6,7-dimethyl-4H-chromen-4-one], for which the EC50 with HT22 cells [1] (setting [4]) was 170 nM; with HT22 cells [1] (setting [5]), 167 nM. For the same compound, in the experiment on HT22 cells [1] (Mus musculus, 20 μM IAA), the percent protection from IAA-induced cell death at 0.1 µM stood at 49%. In the experiment on HT22 cells [2], the “GSH (ability to maintain GSH)” value is reported as “no”.

Consider `CCOc1cc(-c2ccc(O)c(O)c2)nc2ccccc12` [CMS-023, 4-ethoxy-2-(3,4-dihydroxyphenyl) quinoline], for which the EC50 is 20 nM in the experiment on HT22 cells [1] (setting [4]) and 21 nM in the experiment with HT22 cells [1] (setting [5]). Moreover, the percent protection from IAA-induced cell death at 0.1 µM in the experiment on HT22 cells [1] (Mus musculus, 20 μM IAA) is 72%. In the experiment on HT22 cells [1] (in vitro ischemia, HT22/IAA), the “fold improvement of neuroprotective activity relative to CMS-007” value was about 2 fold. In addition, in the experiment with HT22 cells [1] (in vitro ischemia, HT22/IAA), the “fold improvement of neuroprotective activity/potency relative to Fisetin” value is listed as about 140 fold. Also, the “GSH (ability to maintain GSH)” value in the experiment on HT22 cells [2] is reported as “yes”.

On to `CN(C)c1ccc(-c2oc3c(ccc4ccccc43)c(=O)c2O)cc1` [CMS-118, 2-(4-(dimethylamino)phenyl)-3-hydroxy-4H-benzo[h]chromen-4-one], for which the EC50 in the experiment with HT22 cells [1] (setting [4]) was found to be 40 nM. Also, the Emax with HT22 cells [1] (Mus musculus) amounted to 82%. The “GSH (ability to maintain GSH)” value with HT22 cells [2] is on record as “yes”.

For `CC(C)Oc1cc(-c2ccc(O)c(O)c2)nc2ccccc12` [CMS-024, 4-isopropoxy-2-(3,4-dihydroxyphenyl) quinoline], the figures for the EC50 in the experiment with HT22 cells [1] (setting [4]) and in the experiment on HT22 cells [1] (setting [5]) were 20 nM and 21 nM, respectively. For the same compound, the percent protection from IAA-induced cell death at 0.1 µM in the experiment with HT22 cells [1] (Mus musculus, 20 μM IAA) was 72%. For the same compound, in the experiment on HT22 cells [1] (in vitro ischemia, HT22/IAA), the “fold improvement of neuroprotective activity relative to CMS-007” value was about 2 fold. For the same compound, the “GSH (ability to maintain GSH)” value in the experiment on HT22 cells [2] is listed as “yes”.

For the compound `COc1cc(-c2ccc(O)c(O)c2)nc2ccccc12` [CMS-007, 4-methoxy-2-(3,4-dihydroxyphenyl) quinoline], the 50% effective concentration (EC50) in the experiment with HT22 cells [1] (setting [4]) was 40 nM. In addition, the percent protection from IAA-induced cell death at 0.1 µM in the experiment on HT22 cells [1] (Mus musculus, 20 μM IAA) came out at 71%. Further, in the experiment on HT22 cells [1] (in vitro ischemia, HT22/IAA), the “fold improvement of neuroprotective activity/potency relative to Fisetin” value is about 75 fold. Also, in the experiment on HT22 cells [2], the “GSH (ability to maintain GSH)” value is on record as “yes”.

In the case of `O=c1c(O)c(-c2ccc(N3CCCC3)c(O)c2)oc2c1ccc1ccccc12` [CMS-140, 3-hydroxy-2-(3-hydroxy-4-(pyrrolidin-1-yl)phenyl)-4H-benzo[h]chromen-4-one], the EC50 in the experiment on HT22 cells [1] (setting [4]) is 5 nM. Also, the Emax in the experiment on HT22 cells [1] (Mus musculus) is 89%. In addition, the “fold improvement of neuroprotective activity/potency relative to Fisetin” value with HT22 cells [1] (in vitro ischemia, HT22/IAA) is “up to 600 fold”. The “GSH (ability to maintain GSH)” value in the experiment with HT22 cells [2] is given as “Yes”.

As a reminder, the EC50 is the concentration needed to bring the measured effect to its halfway point.
